36 compounds from patent US9156845B2, “4-(substituted amino)-7H-pyrrolo[2,3-d] pyrimidines as LRRK2 inhibitors” (Pfizer Inc., priority 2012, dated 2015) can be followed below.

Experiment [1] has as its target GST-tagged truncated LRRK2 (Homo sapiens (Human), UniProt Q5S007). Description: LRRK2 Lantha Screen kinase assay. It counts as biochemical. The following applies: geometric mean of 2-5 determinations unless otherwise indicated (a: >=6 determinations; b: single determination); read-out: LRRK2 WT IC50.
Experimental: LRRK2 kinase activity was measured using Lantha Screen technology from Invitrogen. GST-tagged truncated LRRK2 from Invitrogen (Cat # PV4874) was incubated with a fluorescein-labeled peptide substrate based upon ezrin/radixin/moesin (ERM), also known as LRRKtide (Invitrogen cat #PR8976A), in the presence of a dose response of compound. Upon completion, the assay was stopped and detected with a terbium labeled anti-phospho-ERM antibody (Invitrogen, cat #PR8975A). […] Aliquots (3.5 μL) of the 100% DMSO dose response were mixed with 46.5 μL water then 1 μL of this mixture was added to the 3 μL substrate mix in the 384-well plate. The kinase reaction was started with 3 μL of a working solution of LRRK2 enzyme at a concentration of 4 μg/mL. […] The reaction was allowed to progress at room temperature for two hours and then stopped with the addition of 7 μL of detection buffer (20 mM Tris pH 7.6, 0.01% NP-40, 0.02% NaN3, 6 mM EDTA with 2 nM terbium labeled anti-phospho-ERM).
The target in experiment [2] is mutant G2019S LRRK2 (Homo sapiens (Human), UniProt Q5S007, G2019S). Briefly: LRRK2 Lantha Screen kinase assay, mutant enzyme. The following applies: geometric mean of 2-5 determinations unless otherwise indicated (a: >=6 determinations; b: single determination). It counts as biochemical.

Each structure is given as a SMILES string. Structures can show the parent of a compound that is named as a salt.

Sequence of GST-tagged truncated LRRK2 (Q5S007 970-2527): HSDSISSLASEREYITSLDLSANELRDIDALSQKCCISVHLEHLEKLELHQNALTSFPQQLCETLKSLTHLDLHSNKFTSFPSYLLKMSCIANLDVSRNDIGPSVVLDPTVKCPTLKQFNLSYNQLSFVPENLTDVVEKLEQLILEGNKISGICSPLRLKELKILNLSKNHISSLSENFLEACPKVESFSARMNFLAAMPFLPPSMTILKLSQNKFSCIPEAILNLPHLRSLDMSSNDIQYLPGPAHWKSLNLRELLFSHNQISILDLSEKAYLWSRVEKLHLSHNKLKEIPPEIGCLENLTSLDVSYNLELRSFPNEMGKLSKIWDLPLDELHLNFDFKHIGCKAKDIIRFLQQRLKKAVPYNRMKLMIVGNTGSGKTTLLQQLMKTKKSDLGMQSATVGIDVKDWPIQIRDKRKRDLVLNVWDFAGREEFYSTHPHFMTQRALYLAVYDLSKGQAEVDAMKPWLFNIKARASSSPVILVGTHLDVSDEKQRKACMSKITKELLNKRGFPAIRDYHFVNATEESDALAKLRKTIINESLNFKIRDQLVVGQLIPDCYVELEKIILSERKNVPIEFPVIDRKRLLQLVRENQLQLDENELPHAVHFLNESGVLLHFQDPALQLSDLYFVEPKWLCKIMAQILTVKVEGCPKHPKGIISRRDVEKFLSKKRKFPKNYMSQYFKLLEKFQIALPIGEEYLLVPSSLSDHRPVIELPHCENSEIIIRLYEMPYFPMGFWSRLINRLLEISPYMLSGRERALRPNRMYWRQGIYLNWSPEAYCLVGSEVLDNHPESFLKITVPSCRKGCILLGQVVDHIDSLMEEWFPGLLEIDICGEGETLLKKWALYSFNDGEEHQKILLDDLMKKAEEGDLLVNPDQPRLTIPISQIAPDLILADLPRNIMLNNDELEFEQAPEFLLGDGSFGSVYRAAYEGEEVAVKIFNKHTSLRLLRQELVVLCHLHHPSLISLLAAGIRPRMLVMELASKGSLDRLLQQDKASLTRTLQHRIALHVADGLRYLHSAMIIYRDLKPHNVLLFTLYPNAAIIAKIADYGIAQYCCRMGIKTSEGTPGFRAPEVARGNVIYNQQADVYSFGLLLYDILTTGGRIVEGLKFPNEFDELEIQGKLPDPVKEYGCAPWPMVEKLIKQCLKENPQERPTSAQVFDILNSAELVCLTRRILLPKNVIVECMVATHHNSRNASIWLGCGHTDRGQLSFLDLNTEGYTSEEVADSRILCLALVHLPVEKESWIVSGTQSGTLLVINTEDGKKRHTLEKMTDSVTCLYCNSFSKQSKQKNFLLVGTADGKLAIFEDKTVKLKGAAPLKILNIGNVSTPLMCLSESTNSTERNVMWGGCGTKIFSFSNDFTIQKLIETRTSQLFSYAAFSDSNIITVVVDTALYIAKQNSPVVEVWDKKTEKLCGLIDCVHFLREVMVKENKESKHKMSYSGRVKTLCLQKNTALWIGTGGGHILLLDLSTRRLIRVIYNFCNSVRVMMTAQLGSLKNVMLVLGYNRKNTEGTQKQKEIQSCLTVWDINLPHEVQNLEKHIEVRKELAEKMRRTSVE
Sequence of mutant G2019S LRRK2 (Q5S007 970-2527 G2019S): as the sequence (Q5S007 970-2527) above, with G1050S counted along it

On to `N#Cc1cccc(-c2c[nH]c3ncnc(N4CCO[C@H]5CCC[C@H]54)c23)c1` (relative stereo) [Example 208, rel-3-{4-[(4aR,7aS)-hexahydrocyclopenta[b][1,4]oxazin-4(4aH)-yl]-7H-pyrrolo[2,3-d]pyrimidin-5-yl}benzonitrile], for which the IC50 in experiment [1] was found to be 0.0272 µM; in experiment [2], 0.186 µM.

As to `CC1CCCN(c2ncnc3[nH]cc(-c4cccc(C#N)c4)c23)C1` (single isomer, unassigned) [Example 41], the IC50 amounted to 0.07 µM in experiment [1] and 0.172 µM in experiment [2].

Consider `CC1CCN(c2ncnc3[nH]cc(-c4cccc(C#N)c4)c23)C1` (single isomer, unassigned) [Example 71], for which the IC50 in experiment [1] came to 0.021 µM; in experiment [2] it was 0.102 µM.

For `COCC1CN(c2ncnc3[nH]cc(-c4cccc(C#N)c4)c23)CCO1` (single isomer, unassigned) [Example 74], the figures for the half-maximal inhibitory concentration (IC50) in experiment [1] and in experiment [2] were 0.012 µM and 0.1 µM, respectively.

Regarding `N#Cc1cccc(-c2c[nH]c3ncnc(N4CCOC(c5cc[nH]n5)C4)c23)c1` (single isomer, unassigned) [Example 76, 3-{4-[2-(1H-pyrazol-3-yl)morpholin-4-yl]-7H-pyrrolo[2,3-d]pyrimidin-5-yl}benzonitrile], the IC50 in experiment [1] worked out at 0.023 µM; in experiment [2] it was 0.208 µM.

Consider `CC1CCN(c2ncnc3[nH]cc(-c4cccc(C#N)c4)c23)C1` (single isomer, unassigned) [Example 77], for which the values for the IC50 in experiment [1] and in experiment [2] were 0.039 µM and 0.158 µM, respectively.

For `COCC1CN(c2ncnc3[nH]cc(-c4cccc(C#N)c4)c23)CCO1` (single isomer, unassigned) [Example 197], the IC50 is 0.214 µM in experiment [1] and 0.245 µM in experiment [2].

Take `Cc1noc(C2CN(c3ncnc4[nH]cc(-c5cccc(C#N)c5F)c34)CCO2)n1` (single isomer, unassigned) [Example 213]: the results for the concentration for half-maximal inhibition (IC50) in experiment [1] and in experiment [2] were 0.00771 µM and 0.0957 µM, respectively.

Take `Cc1[nH]c2ncnc(N3CCOCC3)c2c1-c1cccc(C#N)c1` [Example 2, 3-[6-Methyl-4-(morpholin-4-yl)-7H-pyrrolo[2,3-d]pyrimidin-5-yl]benzonitrile]: the half-maximal inhibitory concentration (IC50) in experiment [1] was 0.012 µM; in experiment [2], 0.043 µM.

Take `N#Cc1cccc(-c2c[nH]c3ncnc(N4CCOCC4)c23)n1` [Example 3, 6-[4-(Morpholin-4-yl)-7H-pyrrolo[2,3-d]pyrimidin-5-yl]pyridine-2-carbonitrile]: the results for the IC50 in experiment [1] and in experiment [2] were 0.009 µM and 0.026 µM, respectively.

Turning to `CN(C)c1ncnc2[nH]cc(-c3cccc(C#N)c3)c12` [Example 5, 3-[4-(Dimethylamino)-7H-pyrrolo[2,3-d]pyrimidin-5-yl]benzonitrile], the IC50 in experiment [1] turned out to be 0.005 µM; in experiment [2], 0.015 µM.

With `C[C@H]1CN(c2ncnc3[nH]cc(-c4cccc(C#N)c4)c23)CCO1` [Example 6, 3-{4-[(2S)-2-Methylmorpholin-4-yl]-7H-pyrrolo[2,3-d]pyrimidin-5-yl}benzonitrile], the IC50 amounted to 0.007 µM in experiment [1] and 0.037 µM in experiment [2].

Regarding `C[C@H]1CCCN(c2ncnc3[nH]cc(-c4cccc(CO)c4)c23)C1` [Example 7, (3-{4-[(3S)-3-Methylpiperidin-1-yl]-7H-pyrrolo[2,3-d]pyrimidin-5-yl}phenyl)methanol], the IC50 in experiment [1] and in experiment [2] was 0.018 µM in each case.

As for `c1nc(N2CCOCC2)c2c(-c3cn[nH]c3)c[nH]c2n1` [Example 8, 4-(Morpholin-4-yl)-5-(1H-pyrazol-4-yl)-7H-pyrrolo[2,3-d]pyrimidine, formate salt], the 50% inhibitory concentration (IC50) in experiment [1] was determined as 0.025 µM; in experiment [2] it was 0.033 µM.

Take `Cc1nc(N2CCOCC2)c2c(-c3cccc(C#N)c3)c[nH]c2n1` [Example 9, 3-[2-Methyl-4-(morpholin-4-yl)-7H-pyrrolo[2,3-d]pyrimidin-5-yl]benzonitrile]: the results for the IC50 in experiment [1] and in experiment [2] were 0.042 µM and 0.513 µM, respectively.

Take `CN(C)c1ncnc2[nH]cc(-c3cccc(CO)c3)c12` [Example 10, {3-[4-(Dimethylamino)-7H-pyrrolo[2,3-d]pyrimidin-5-yl]phenyl}methanol]: the IC50 is 0.034 µM in experiment [1] and 0.023 µM in experiment [2].

Regarding `CC1(C)CCCN(c2ncnc3[nH]cc(-c4cccc(C#N)c4)c23)C1` [Example 11, 3-[4-(3,3-dimethylpiperidin-1-yl)-7H-pyrrolo[2,3-d]pyrimidin-5-yl]benzonitrile], the IC50 in experiment [1] came to 0.09 µM; in experiment [2], 0.325 µM.

Regarding `N#Cc1cccc(-c2c[nH]c3ncnc(N4CCCCC4)c23)c1` [Example 12, 3-[4-(piperidin-1-yl)-7H-pyrrolo[2,3-d]pyrimidin-5-yl]benzonitrile], the IC50 in experiment [1] is 0.006 µM; in experiment [2], 0.028 µM.

For the compound `NC(=O)C1CCCN(c2ncnc3[nH]cc(-c4ccccc4)c23)C1` (stereo not drawn) [Example 13, 1-(5-phenyl-7H-pyrrolo[2,3-d]pyrimidin-4-yl)piperidine-3-carboxamide], the figures for the concentration for half-maximal inhibition (IC50) in experiment [1] and in experiment [2] were 0.041 µM and 0.039 µM, respectively.

Consider `N#Cc1cccc(-c2c[nH]c3ncnc(N4CCC[C@H](O)C4)c23)c1` [Example 14, 3-{4-[(3S)-3-hydroxypiperidin-1-yl]-7H-pyrrolo[2,3-d]pyrimidin-5-yl}benzonitrile], for which the IC50 in experiment [1] amounted to 0.017 µM; in experiment [2], 0.095 µM.

For `C[C@H]1CCCN(c2ncnc3[nH]cc(-c4ccccc4)c23)C1` [Example 15, 4-[(3S)-3-methylpiperidin-1-yl]-5-phenyl-7H-pyrrolo[2,3-d]pyrimidine], the half-inhibitory concentration (IC50) in experiment [1] is 0.091 µM; in experiment [2] it was 0.092 µM.

As to `C[C@H]1CCCN(c2ncnc3[nH]cc(-c4cccc(C#N)c4)c23)C1` [Example 16, 3-{4-[(3S)-3-methylpiperidin-1-yl]-7H-pyrrolo[2,3-d]pyrimidin-5-yl}benzonitrile], the 50% inhibitory concentration (IC50) came to 0.016 µM in experiment [1] and 0.045 µM in experiment [2].

On to `C[C@H]1CCCN(c2ncnc3[nH]cc(-c4cnn(C)c4)c23)C1` [Example 17, 4-[(3S)-3-methylpiperidin-1-yl]-5-(1-methyl-1H-pyrazol-4-yl)-7H-pyrrolo[2,3-d]pyrimidine], for which the results for the IC50 in experiment [1] and in experiment [2] were 0.014 µM and 0.012 µM, respectively.

Take `c1ccc(-c2c[nH]c3ncnc(N4CCCC4)c23)cc1` [Example 18, 5-phenyl-4-(pyrrolidin-1-yl)-7H-pyrrolo[2,3-d]pyrimidine]: the IC50 in experiment [1] is 0.071 µM; in experiment [2], 0.047 µM.

With `OCC1CCN(c2ncnc3[nH]cc(-c4ccccc4)c23)CC1` [Example 19, [1-(5-phenyl-7H-pyrrolo[2,3-d]pyrimidin-4-yl)piperidin-4-yl]methanol], the half-maximal inhibitory concentration (IC50) in experiment [1] came to 0.038 µM; in experiment [2] it was 0.029 µM.

In the case of `N#CC1CCCN(c2ncnc3[nH]cc(-c4cccc(CO)c4)c23)C1` (stereo not drawn) [Example 20, 1-{5-[3-(hydroxymethyl)phenyl]-7H-pyrrolo[2,3-d]pyrimidin-4-yl}piperidine-3-carbonitrile], the IC50 in experiment [1] was found to be 0.056 µM; in experiment [2], 0.031 µM.

As to `N#Cc1cccc(-c2c[nH]c3ncnc(N4CCCC(C#N)C4)c23)c1` (stereo not drawn) [Example 21, 1-[5-(3-cyanophenyl)-7H-pyrrolo[2,3-d]pyrimidin-4-yl]piperidine-3-carbonitrile], the IC50 stood at 0.057 µM in experiment [1] and 0.183 µM in experiment [2].

As for `C[C@@H]1C[C@H](C)CN(c2ncnc3[nH]cc(-c4cnn(C)c4)c23)C1` [Example 22, 4-(3,5-cis-dimethylpiperidin-1-yl)-5-(1-methyl-1H-pyrazol-4-yl)-7H-pyrrolo[2,3-d]pyrimidine], the IC50 in experiment [1] and in experiment [2] was 0.016 µM throughout.

As for `COc1ccc(C#N)cc1-c1c[nH]c2ncnc(N3CCCC(C)C3)c12` (stereo not drawn) [Example 23, 4-methoxy-3-[4-(3-methylpiperidin-1-yl)-7H-pyrrolo[2,3-d]pyrimidin-5-yl]benzonitrile], the results for the IC50 in experiment [1] and in experiment [2] were 0.025 µM and 0.046 µM, respectively.

As to `COc1ccc(C#N)cc1-c1c[nH]c2ncnc(N(C)C)c12` [Example 24, 3-[4-(dimethylamino)-7H-pyrrolo[2,3-d]pyrimidin-5-yl]-4-methoxybenzonitrile], the results for the IC50 in experiment [1] and in experiment [2] were 0.024 µM and 0.03 µM, respectively.

Take `COc1ccc(Cl)cc1-c1c[nH]c2ncnc(N(C)C)c12` [Example 25, 5-(5-chloro-2-methoxyphenyl)-N,N-dimethyl-7H-pyrrolo[2,3-d]pyrimidin-4-amine]: the IC50 is 0.022 µM in experiment [1] and 0.019 µM in experiment [2].

On to `N#Cc1cccc(-c2c[nH]c3ncnc(N4CCC(c5ncc[nH]5)CC4)c23)c1` [Example 26, 3-{4-[4-(1H-imidazol-2-yl)piperidin-1-yl]-7H-pyrrolo[2,3-d]pyrimidin-5-yl}benzonitrile], for which the IC50 in experiment [1] stood at 0.042 µM; in experiment [2], 0.23 µM.

Turning to `COCC1CCCN(c2ncnc3[nH]cc(-c4cccc(C#N)c4)c23)C1` (stereo not drawn) [Example 27, 3-{4-[3-(methoxymethyl)piperidin-1-yl]-7H-pyrrolo[2,3-d]pyrimidin-5-yl}benzonitrile], the IC50 in experiment [1] came to 0.095 µM; in experiment [2], 0.219 µM.

For `CN1CCC2(CC1)CN(c1ncnc3[nH]cc(-c4cccc(C#N)c4)c13)CCO2` [Example 28, 3-[4-(9-methyl-1-oxa-4,9-diazaspiro[5.5]undec-4-yl)-7H-pyrrolo[2,3-d]pyrimidin-5-yl]benzonitrile], the IC50 worked out at 0.04 µM in experiment [1] and 0.201 µM in experiment [2].

On to `COC1CCCN(c2ncnc3[nH]cc(-c4cccc(C#N)c4)c23)C1` (stereo not drawn) [Example 29, 3-[4-(3-methoxypiperidin-1-yl)-7H-pyrrolo[2,3-d]pyrimidin-5-yl]benzonitrile], for which the IC50 in experiment [1] worked out at 0.079 µM; in experiment [2], 0.154 µM.

As for `COCC1CN(c2ncnc3[nH]cc(-c4cccc(C#N)c4)c23)CCO1` (stereo not drawn) [Example 30, 3-{4-[2-(methoxymethyl)morpholin-4-yl]-7H-pyrrolo[2,3-d]pyrimidin-5-yl}benzonitrile], the values for the half-maximal inhibitory concentration (IC50) in experiment [1] and in experiment [2] were 0.017 µM and 0.121 µM, respectively.

As a reminder, the IC50 is the concentration that inhibits the measured activity by half.
